Reference: patent US10259827B2, “BMP potentiators” (NOVARTIS AG, priority 2016, dated 2019)

Legend:
[1] = system: 293T-NFAT-luciferase cells; experiment: Calcineurin inhibition, 293T-NFAT-luciferase reporter assay; assay type: cell-based; conditions: 293T-NFAT-luciferase cells co-treated with 100 ng/ml PMA and 1 μM Ionomycin, 24 hours after treatment; read-out: NFAT-luc IC50
Experimental: NFAT-luciferase reporter line was established by transfecting NFAT-luciferase/pTranslucent (Panomics #LR0050) and Puromycin-resistance plasmid together into 293T cells.
293T-NFAT-luciferase cells were plated to 384-well plate at 10000 cells in 32 μl DMEM plus 10% FBS at day 0. Cells were treated with different doses of compounds at day 1. Half an hour after compound treatment, 293T-NFAT-luciferase cells were co-treated with 100 ng/ml PMA (PHORBOL 12-MYRISTATE 13-ACETAT, Sigma, catalog #P8139-1MG) and 1 μM Ionomycin (Sigma, catalog #10634-1MG). Bright-Glo™ Luciferase Assay (Promega, catalog # E2650) was performed with EnVision plate reader (PerkinElmer) 24 hours after treatment at day 2.

[2] = system: C2C12-IDBRE-luciferase cells; experiment: BMP activity, C2C12-IDBRE-luciferase reporter assay; assay type: cell-based; conditions: 24 hours after treatment, 100% activity = luminescence 200% of DMSO control, read-out: Qualified absolute AC50
Experimental: C2C12-IDBRE-luciferase reporter line was established by infecting C2C12 cells with lentiviruses with IDBRE-luciferase pLenti6 plasmid with Blasticidin resistance.
C2C12-IDBRE-luciferase cells were plated to 384-well plate at 5000 cells in 36 μl DMEM plus 10% FBS at day 0. Cells were treated with different doses of compounds at day 1. Bright-Glo™ Luciferase Assay (Promega, catalog # E2650) was performed with EnVision plate reader (PerkinElmer) 24 hours after treatment at day 2. 0% activity is equal to DMSO control. 100% activity means Luminescence reading for a compound is 200% of luminescence reading of DMSO control. The formula to calculate the activity is: 100*(Luminescence_compound−Luminescence_DMSO)/Luminescence_DMSO

| SMILES | IC50 [1] [nM] | AC50 [2] [nM] |
| --- | --- | --- |
| CO[C@H]1C[C@@H](C)C/C(C)=C/[C@@H](C/C=C/C2(O)COC2)C(=O)C[C@H](O)[C@@H](C)[C@@H](/C(C)=C/[C@@H]2CC[C@@H](O)[C@H](OC)C2)OC(=O)[C@@H]2CCCCN2C(=O)C(=O)[C@]2(O)O[C@H]1[C@@H](OC)C[C@H]2C [Compound A] | > 50000 | 91 |
| CC[C@H]1C(=O)C[C@H](O)[C@@H](C)[C@@H](/C(C)=C/[C@@H]2CC[C@@H](O)[C@H](OC)C2)OC(=O)[C@@H]2CCCCN2C(=O)C(=O)[C@]2(O)O[C@H]([C@@H](OC)C[C@@H](C)C[C@]3(C)O[C@@H]13)[C@@H](OC)C[C@H]2C [Compound C] | 33 | 201 |
| CC[C@H]1C(=O)C[C@H](O)[C@@H](C)[C@@H](/C(C)=C/[C@@H]2CC[C@@H](O)[C@H](OC)C2)OC(=O)[C@@H]2CCCCN2C(=O)C(=O)[C@]2(O)O[C@H]([C@@H](OC)C[C@@H](C)C[C@@]3(C)O[C@H]13)[C@@H](OC)C[C@H]2C [Compound B] | > 50000 | 24 |
| C=CC[C@@H]1/C=C(\C)C[C@H](C)C[C@H](OC)[C@H]2O[C@@](O)(C(=O)C(=O)N3CCCC[C@H]3C(=O)O[C@H](/C(C)=C/[C@@H]3CC[C@@H](O)[C@H](OC)C3)[C@H](C)[C@@H](O)CC1=O)[C@H](C)C[C@@H]2OC [FK-506, reference compound] | 0.05 | 24 |
